The subject of the series is CCRIS mutagenicity, Ames/micronucleus/aberration tests. The series can be described thus: CCRIS mutagenicity studies.
Setting [1] is: Test System: AMES SALMONELLA TYPHIMURIUM, Strain/Indicator: TA97, Metabolic Activation: HAMSTER, LIVER, S-9, AROCLOR 1254 (10 OR 30%), Method: PREINCUBATION
Setting [2] is: Test System: AMES SALMONELLA TYPHIMURIUM, Strain/Indicator: TA97, Metabolic Activation: NONE, Method: PREINCUBATION
Where [3] appears, read: Test System: AMES SALMONELLA TYPHIMURIUM, Strain/Indicator: TA97, Metabolic Activation: RAT, LIVER, S-9, AROCLOR 1254 (10 OR 30%), Method: PREINCUBATION
[4] abbreviates: Test System: AMES SALMONELLA TYPHIMURIUM, Strain/Indicator: TA98, Metabolic Activation: HAMSTER, LIVER, S-9, AROCLOR 1254 (10 OR 30%), Method: PREINCUBATION
Where [5] appears, read: Test System: AMES SALMONELLA TYPHIMURIUM, Strain/Indicator: TA98, Metabolic Activation: NONE, Method: PREINCUBATION
The mark [6] stands for this setting: Test System: AMES SALMONELLA TYPHIMURIUM, Strain/Indicator: TA98, Metabolic Activation: RAT, LIVER, S-9, AROCLOR 1254 (10 OR 30%), Method: PREINCUBATION
The mark [7] stands for this setting: Test System: AMES SALMONELLA TYPHIMURIUM, Strain/Indicator: TA100, Metabolic Activation: HAMSTER, LIVER, S-9, AROCLOR 1254 (10 OR 30%), Method: PREINCUBATION
The mark [8] stands for this setting: Test System: AMES SALMONELLA TYPHIMURIUM, Strain/Indicator: TA100, Metabolic Activation: NONE, Method: PREINCUBATION
[9] abbreviates: Test System: AMES SALMONELLA TYPHIMURIUM, Strain/Indicator: TA100, Metabolic Activation: RAT, LIVER, S-9, AROCLOR 1254 (10 OR 30%), Method: PREINCUBATION
Setting [10] is: Test System: AMES SALMONELLA TYPHIMURIUM, Strain/Indicator: TA1535, Metabolic Activation: HAMSTER, LIVER, S-9, AROCLOR 1254 (10 OR 30%), Method: PREINCUBATION
Where [11] appears, read: Test System: AMES SALMONELLA TYPHIMURIUM, Strain/Indicator: TA1535, Metabolic Activation: NONE, Method: PREINCUBATION
The mark [12] stands for this setting: Test System: AMES SALMONELLA TYPHIMURIUM, Strain/Indicator: TA1535, Metabolic Activation: RAT, LIVER, S-9, AROCLOR 1254 (10 OR 30%), Method: PREINCUBATION
Setting [13] is: Test System: AMES SALMONELLA TYPHIMURIUM, Strain/Indicator: TA1537, Metabolic Activation: NONE, Method: PREINCUBATION
The mark [14] stands for this setting: Test System: AMES SALMONELLA TYPHIMURIUM, Strain/Indicator: TA100, Metabolic Activation: NONE, Method: STANDARD PLATE.
[15] abbreviates: Test System: AMES SALMONELLA TYPHIMURIUM, Strain/Indicator: TA98, Metabolic Activation: NONE, Method: STANDARD PLATE.
Setting [16] is: Test System: AMES SALMONELLA TYPHIMURIUM, Strain/Indicator: TA98, Metabolic Activation: RAT, LIVER, S-9, AROCLOR 1254, Method: STANDARD PLATE.
Where [17] appears, read: Test System: AMES SALMONELLA TYPHIMURIUM, Strain/Indicator: TA100, Metabolic Activation: RAT, LIVER, S-9, AROCLOR 1254, Method: STANDARD PLATE.

Molecules are shown by their SMILES. Activity calls are given as the source filed them. The rule behind the calls is not given here.

On to `CC(COC(=O)c1ccccc1)(COC(=O)c1ccccc1)COC(=O)c1ccccc1`, for which the mutagenic call is “inactive; negative” under setting [1]; “inactive; negative” under setting [2]; “inactive; negative” under setting [3]; “inactive; negative” under setting [4]; “inactive; negative” under setting [5]; “inactive; negative” under setting [6]. Also, the mutagenic call under setting [7] was “inactive; negative”; the mutagenic call under setting [8] was “inactive; negative”; the mutagenic call under setting [9] was “inactive; negative”; the mutagenic call under setting [10] was “inactive; negative”; the mutagenic call under setting [11] was “inactive; negative”; the mutagenic call under setting [12] is “inactive; negative”. Also, the mutagenic call is “inactive; negative” (Test System: AMES SALMONELLA TYPHIMURIUM, Strain/Indicator: TA1537, Metabolic Activation: HAMSTER, LIVER, S-9, AROCLOR 1254 (30%), Method: PREINCUBATION); “inactive; negative” under setting [13]; “inactive; negative” (Test System: AMES SALMONELLA TYPHIMURIUM, Strain/Indicator: TA1537, Metabolic Activation: RAT, LIVER, S-9, AROCLOR 1254 (30%), Method: PREINCUBATION).

Take `CC(=O)[C@]1(O)Cc2c(O)c3c(c(O)c2[C@@H](O[C@H]2C[C@H](N)[C@H](OC(C[C@H](C)O)O[C@@H](C)C=O)[C@H](C)O2)C1)C(=O)c1c(O)cccc1C3=O` (stereo not given in full): the mutagenic call reads like this: under setting [5], “active; positive”; (Test System: AMES SALMONELLA TYPHIMURIUM, Strain/Indicator: TA98, Metabolic Activation: RAT, LIVER, S-9, Method: PREINCUBATION) “active; positive”; (Test System: AMES SALMONELLA TYPHIMURIUM, Strain/Indicator: TA98, Metabolic Activation: S-9, Method: PREINCUBATION) “active; positive”; under setting [8], “active; positive”; (Test System: AMES SALMONELLA TYPHIMURIUM, Strain/Indicator: TA100, Metabolic Activation: RAT, LIVER, S-9, Method: PREINCUBATION) “active; positive”; (Test System: AMES SALMONELLA TYPHIMURIUM, Strain/Indicator: TA100, Metabolic Activation: S-9, Method: PREINCUBATION) “active; positive”. For the same molecule, the mutagenic call runs as follows: (Test System: CHINESE HAMSTER V-79, Strain/Indicator: V-79/6-THIOGUANINE, Metabolic Activation: NONE) “active; positive”; (Test System: CHINESE HAMSTER V-79, Strain/Indicator: V-79/6-THIOGUANINE, Metabolic Activation: NONE, Method: REPLATING) “active; positive”.

For the molecule `O=NN(CCO)CC(=O)O`, the mutagenic call under setting [8] was “active; positive”.

In the case of `O=c1c(O[C@@H]2O[C@H](CO)[C@@H](O)[C@H](O)[C@H]2O)c(-c2ccc(O)c(O)c2)oc2cc(O)cc(O)c12`, the mutagenic call is “active; positive” (Test System: AMes Salmonella typhimurium, Strain/Indicator: TA98, Metabolic Activation: None, Method: Standard plate); “active; positive” (Test System: Ames Salmonella typhimurium, Strain/Indicator: 98, Metabolic Activation: Rat, Liver, S-9, Aroclor 1254, Method: Standard plate); “inactive; negative” (Test System: Ames Salmonella typhimurium, Strain/Indicator: TA100, Metabolic Activation: None, Method: Standard plate); “active; positive” (Test System: Ames Salmonella typhimurium, Strain/Indicator: TA100, Metabolic Activation: Rat, Liver, S-9, Aroclor 1254, Method: Standard plate).

Take `Nc1nc(Cl)c2[nH]cnc2n1`: the mutagenic call under setting [14] was “active; positive”.

Consider `CC(=O)c1cccn1[N+](=O)[O-]`, for which the mutagenic call reads like this: under setting [15], “active; positive”; under setting [16], “active; positive”; under setting [14], “active; positive”; under setting [17], “active; positive”.

As to `O=C(OC[C@@H]1CO1)c1ccc([N+](=O)[O-])cc1`, under setting [14], the mutagenic call is “active; positive”.

Consider `Cc1cc(Cl)ccc1OC(C)C(=O)O` (stereo not given), for which the mutagenic call (Test System: AMES SALMONELLA TYPHIMURIUM, Strain/Indicator: TA97, Metabolic Activation: NONE, Method: STANDARD PLATE) is “inactive; negative”; the mutagenic call (Test System: AMES SALMONELLA TYPHIMURIUM, Strain/Indicator: TA97, Metabolic Activation: RAT, LIVER, S-9, AROCLOR 1254, Method: STANDARD PLATE) is “inactive; negative”; the mutagenic call under setting [15] is “inactive; negative”; the mutagenic call under setting [16] is “inactive; negative”; the mutagenic call under setting [14] was “inactive; negative”; the mutagenic call under setting [17] was “inactive; negative”. Besides, the mutagenic call runs as follows: (Test System: AMES SALMONELLA TYPHIMURIUM, Strain/Indicator: TA102, Metabolic Activation: NONE, Method: STANDARD PLATE) “inactive; negative”; (Test System: AMES SALMONELLA TYPHIMURIUM, Strain/Indicator: TA102, Metabolic Activation: RAT, LIVER, S-9, AROCLOR 1254, Method: STANDARD PLATE) “inactive; negative”.

`Nc1cccc2c(=O)[nH][nH]c(=O)c12`: the mutagenic call runs as follows: under setting [1], “inactive; negative”; under setting [2], “inactive; negative”; under setting [3], “inactive; negative”; under setting [4], “inactive; negative”; under setting [5], “inactive; negative”; under setting [6], “inactive; negative”. The mutagenic call runs as follows: under setting [7], “inactive; negative”; under setting [8], “inactive; negative”; under setting [9], “inactive; negative”; under setting [10], “inactive; negative”; under setting [11], “inactive; negative”; under setting [12], “inactive; negative”. In addition, the mutagenic call is, setting by setting: (Test System: AMES SALMONELLA TYPHIMURIUM, Strain/Indicator: TA1537, Metabolic Activation: HAMSTER, LIVER, S-9, AROCLOR 1254 (10 OR 30%), Method: PREINCUBATION) “inactive; negative”; under setting [13], “inactive; negative”; (Test System: AMES SALMONELLA TYPHIMURIUM, Strain/Indicator: TA1537, Metabolic Activation: RAT, LIVER, S-9, AROCLOR 1254 (10 OR 30%), Method: PREINCUBATION) “inactive; negative”.

`CCC(Cl)C(=O)O` (stereo not given): the mutagenic call by setting is: (End Point: IN VITRO CHROMOSOMAL ABERRATIONS, Test System: CHL CELLS, Metabolic Activation: RAT, LIVER, S-9, SODIUM PHENOBARBITAL AND 5,6-BENZOFLAVONE) “inactive; negative”; (End Point: IN VITRO CHROMOSOMAL ABERRATIONS, Test System: CHL/IU CELLS, Metabolic Activation: NONE) “active; positive (structural changes)”; (End Point: IN VITRO MICRONUCLEUS, Test System: CHL/IU CELLS, Metabolic Activation: NONE) “active; positive”.

The record behind these values is PubChem BioAssay AID1259407 (Chemical Carcinogenesis Research Information System (CCRIS), 2018).
